The target in the assay is T1, Phosphodiesterase-6 (Bos taurus, UniProt P11541+P23439).
T1 construct: using an enzyme isolated from bovine retinas at Eurofins-Cerep; tissue Eurofins-Cerep; host or cells: bovine retinas
T1 sequence (P11541 2-856 limits assumed): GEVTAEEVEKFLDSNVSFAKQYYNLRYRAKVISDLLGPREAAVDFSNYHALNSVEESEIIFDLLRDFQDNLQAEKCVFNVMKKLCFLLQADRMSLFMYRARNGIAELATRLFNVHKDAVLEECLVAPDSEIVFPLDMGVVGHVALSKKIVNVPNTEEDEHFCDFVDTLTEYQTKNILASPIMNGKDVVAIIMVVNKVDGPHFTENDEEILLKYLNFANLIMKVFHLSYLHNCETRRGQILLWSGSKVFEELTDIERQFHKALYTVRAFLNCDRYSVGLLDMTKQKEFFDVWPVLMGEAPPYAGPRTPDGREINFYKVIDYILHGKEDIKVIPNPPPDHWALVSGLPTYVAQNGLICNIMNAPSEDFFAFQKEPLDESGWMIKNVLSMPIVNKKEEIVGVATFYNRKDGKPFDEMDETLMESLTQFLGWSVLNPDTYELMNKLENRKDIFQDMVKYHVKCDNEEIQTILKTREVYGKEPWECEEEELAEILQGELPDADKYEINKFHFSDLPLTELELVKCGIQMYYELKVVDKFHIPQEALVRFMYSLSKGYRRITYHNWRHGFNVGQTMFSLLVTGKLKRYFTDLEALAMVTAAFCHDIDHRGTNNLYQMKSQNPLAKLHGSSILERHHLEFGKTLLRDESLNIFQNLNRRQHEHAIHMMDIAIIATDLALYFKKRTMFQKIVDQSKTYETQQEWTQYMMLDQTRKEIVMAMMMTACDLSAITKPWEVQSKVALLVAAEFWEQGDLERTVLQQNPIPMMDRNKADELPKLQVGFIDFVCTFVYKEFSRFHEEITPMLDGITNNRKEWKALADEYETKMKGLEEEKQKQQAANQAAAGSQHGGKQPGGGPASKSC
T1 sequence (P23439 2-850 limits assumed): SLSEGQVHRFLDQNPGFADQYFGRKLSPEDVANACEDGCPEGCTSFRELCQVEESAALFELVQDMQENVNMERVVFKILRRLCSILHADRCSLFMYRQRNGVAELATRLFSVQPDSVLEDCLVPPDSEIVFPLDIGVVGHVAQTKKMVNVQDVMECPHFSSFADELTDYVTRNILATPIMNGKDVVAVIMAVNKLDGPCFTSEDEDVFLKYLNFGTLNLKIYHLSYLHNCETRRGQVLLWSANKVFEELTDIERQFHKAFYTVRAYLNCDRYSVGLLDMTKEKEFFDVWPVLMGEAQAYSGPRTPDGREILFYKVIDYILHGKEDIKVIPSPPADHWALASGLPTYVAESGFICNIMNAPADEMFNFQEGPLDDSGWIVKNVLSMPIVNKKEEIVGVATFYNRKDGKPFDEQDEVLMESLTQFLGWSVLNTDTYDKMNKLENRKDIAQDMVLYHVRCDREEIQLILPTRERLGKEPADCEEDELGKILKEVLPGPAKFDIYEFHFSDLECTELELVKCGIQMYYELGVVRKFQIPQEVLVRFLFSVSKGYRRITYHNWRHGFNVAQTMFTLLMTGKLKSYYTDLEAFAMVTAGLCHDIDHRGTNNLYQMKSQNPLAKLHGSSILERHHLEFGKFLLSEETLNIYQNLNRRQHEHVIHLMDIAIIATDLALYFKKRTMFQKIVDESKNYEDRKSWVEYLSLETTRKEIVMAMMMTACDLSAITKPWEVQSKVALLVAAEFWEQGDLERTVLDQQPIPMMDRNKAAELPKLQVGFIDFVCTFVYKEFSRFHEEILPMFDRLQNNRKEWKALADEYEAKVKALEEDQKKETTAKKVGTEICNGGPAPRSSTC
Briefly: PDE6 (non-selective) assay. The format is biochemical, bovine. On the procedure: The test compound (compound 72), reference compound or water (control) were added to a buffer containing 40 mM Tris/HCl (pH 7.4) and 8 mM MgCl2, 450 nM cAMP and 0.0125 μCi [3H]cAMP. Thereafter, the reaction was initiated by addition of the enzyme (about 1.5 U) and the mixture was incubated for 20 min at 22° C. For basal control measurements, the enzyme was omitted from the reaction mixture. Following incubation SPA beads were added. After 30 min at 22° C. under shaking, the amount of [3H]5′AMP was quantified with a scintillation counter (Topcount, Packard). The results were expressed as a percent inhibition of the control enzyme activity. The standard inhibitory reference compound was Ro 20-1724, which was tested in each experiment at several concentrations to obtain an inhibition curve from which its IC50 value was calculated. • Phosphodiesterase-6 quantified by measuring the formation of 5′GMP from cGMP using an enzyme isolated from bovine retinas at Eurofins-Cerep
The test compound (compound 72), reference compound or water (control) were added to a buffer containing 40 mM Tris/HCl (pH 7.8), 3 mM MgCl2, 1.4 mM DTT, 0.21% BSA, 200 mM NH4Cl, 2 μM cGMP and 0.05 μCi [3H]cGMP. […] After 20 min at 22° C. under shaking, the amount of [3H]5′GMP was quantified with a scintillation counter (Topcount, Packard). The results were expressed as a percent inhibition of the control enzyme activity. […]

Like-named read-outs stand apart in the source and are kept apart here.

As a reminder, the IC50 is the concentration that inhibits the measured activity by half. `COCCN(CCOC)c1nc(N2CCN(C)C(=O)C2)c2nc(N(CCOC)CCOC)nc(N3CCC(OC)CC3)c2n1` [Compound 72, 4-(2,6-bis(bis(2-methoxyethyl)amino)-8-(4-methoxypiperidin-1-yl)pyrimido[5,4-d]pyrimidin-4-yl)-1-methylpiperazin-2-one]: the IC50 is 1 to 10 µM (read-out: PDE6 (non-selective) IC50) and 3.23 µM (read-out: PDE6 IC50).

For the origin of these results see patent publication US20230146675A1, “PYRIMIDO[5,4-d]PYRIMIDINE DERIVATIVES AS ENT INHIBITORS FOR THE TREATMENT OF CANCERS, AND COMBINATION THEREOF WITH ADENOSINE RECEPTOR ANTAGONISTS” (ITEOS BELGIUM SA, priority 2020, published 2023).
